Data taken from patent US8038984B2, “Membrane-permeant peptide complexes for treatment of sepsis” (Washington University, priority 1998, dated 2011).
Numbered stars: 1 amine (or outer) side, 2 acyl side, 3 side chain; on linkers, the order of the positions; unused ones are H or OH. Square brackets hold non-standard residues; d marks the D form. εLys = N[C@@H](CCCCN[*:1])C(=O)[*:2]; dOrn = NCCC[C@@H](N)C(=O)O; βAla = NCCC(=O)O

Columns and labels:
[1] = test system: human lymphocytes; assay: E. coli bacterial-induced lymphocyte apoptosis, staining for active caspase 3; assay type: cell-based
Method: Thymocytes and splenocytes were obtained from CLP and sham-treated mice ˜20 hours postoperatively. The APO-BRDU™ kit (Phoenix Flow Systems, San Diego, Calif.) was employed for flow cytometric quantitation of TUNEL. Antibodies to active caspase 3 (Cell Signaling—Catalog #9664) were used in the flow cytometry and/or TUNEL assay.
Lymphocytes were harvested from peripheral blood obtained from 6 healthy volunteers using a ficol gradient separation technique. Approximately 1×10^6 lymphocytes were plated in individual transwell containers. E. coli bacteria (strain ATCC 25922), that had been grown overnight in trypticase soy broth were added to a separate compartment of the transwell chamber separated from direct contact with the lymphocytes by a 0.02 micron filter (25 μl of bacteria at 3×10^9 CFUs added to 1 ml volume.

[2] = test system: human Jurkat leukemia cells; assay: Cell accumulation (uptake) of Tc-99m-Tat-peptide complexes in Jurkat cells; assay type: cell-based; conditions: Jurkat cells
Method: Control solution for cell uptake experiments was a modified Earle's balanced salt solution (MEBSS) containing (mM): 145 Na^+, 5.4 K^+, 1.2 Ca^2+, 0.8 Mg^2+, 152 Cl^−, 0.8 H2PO4^−, 0.8 SO4^2−, 5.6 dextrose, 4.0 HEPES, and 1% bovine calf serum (vol/vol), pH 7.4±0.05. A 130 mM K^+/20 mM Cl^− solution was made by equimolar substitution of potassium methanesulfonate for NaCl as described by Piwnica-Worms et al. (J. Gen. Physiol., 81:731-748, 1983).
(§1) Characterization of accumulation of Tc-99m-peptide complex was also performed for nonadherent cell lines such as human Jurkat leukemia cells with minor modifications of methods described in the literature (Bosch et al., Leukemia, 11: 1131-1137, 1997). Transport experiments were performed in siliconized microfuge tubes and initiated by addition of 732.5 μl of cells at 2-3×10^6 cells/ml to 10 μl of buffer containing Tc-99m-peptide complex and 7.5 μl of vehicle alone or of any added drug in vehicle at 100-fold the desired concentration. The tubes were incubated in a 37° C. water bath with occasional mixing. The reaction was terminated by centrifuging 250 μl aliquots from the reaction for 10 seconds through 800 μl of a 75:25 mixture of silicon oil, density=1.050 (Aldrich) and mineral oil, density=0.875 (Acros). An aliquot of the aqueous phase was obtained to normalize extracellular concentration of the complex to cell-associated activity, then the oil and aqueous phases were aspirated and the cell pellet extracted in 0.5 ml of 1% SDS, 10 mM sodium borate. For tracer washout experiments, cells were first incubated to plateau uptake (10 min) in loading buffer (37° C.), collected by rapid centrifugation and the pellet resuspended in 50 ml MEBSS (4° C.) to clear extracellular tracer. Following another rapid spin, the cell pellet was resuspended in isotope-free MEBSS (37° C.) and the experiment terminated as above after various times in warm washout buffer. Radioactivity of the cell pellet, buffers and stocks were determined on a gamma counter (Cobra II, 130-165 keV window) and cell protein was determined by the BCA assay (Pierce). Transport data are reported as fmol Tc-complex (mg protein)^−1 (nM0)^− as previously described, with (nM0)^−1 representing total concentration of peptide conjugate in the extracellular buffer (Piwnica-Worms et al., Circulation, 82: 1826-1838, 1990).
Kinetic experiments of [^99mTc]D-Tat-peptide complexes were performed in Jurkat leukemia cells suspended in MEBSS with minor modification of the methods described in Example 6. Transport experiments were performed in siliconized microfuge tubes and initiated by addition of 732.5 μl of cells at 2-3×10^6 cells/ml to 10 μl of MEBSS containing [^99mTc]D-Tat-peptide complex and 7.5 μl of vehicle alone or of any added drug in vehicle at 100 fold the desired concentration. Unless stated otherwise, [^99mTc]D-Tat-peptide complex was added to MEBSS accompanied by a molar excess of unlabeled D-Tat-peptide as obtained directly from the labeling procedure. The final total peptide concentration was 7 nM to 8 μM (1-2 μCi/ml). The tube were incubated at 37° C. and the reaction terminated as previously described. For peptide washout experiments, cells were first incubated to plateau uptake (20 minutes) in MEBSS loading buffer at 37° C., collected by rapid centrifugation and the pellet resuspended in 50 ml of isotope-free MEBSS at 4° C. to clear extracellular tracer. Following another rapid spin, the cell pellet was resuspended in isotope-free MEBSS at 37° C. for various times and the reaction terminated as described previously. Protein assays and determination of gamma activity were as described in Example 6. Absolute concentration of total [Tc]Tat-peptide complex in solution was determined from the specific activity of Tc, based on equations of Mo/Tc generator equilibrium (Lamson et al., J. Nucl. Med., 16:639-641, 1975). […]

[3] = test system: human KB-3-1 and KB-8-5 epidermoid carcinoma cells; assay: Fluorescence (confocal) microscopy of subcellular distribution; assay type: cell-based; conditions: 0.5 μM extracellular concentration, KB-3-1 and KB-8-5 cells
Method: Subsequently, cells on covers lips were fixed in 4% (v/v) formaldehyde in PBS at room temperature and then rinsed 3 times with PBS (1 min each). Cells were then stained and mounted with anti-fading mounting medium containing propidium iodide (1 μg/ml) following the recommended procedures of the manufacturer (Vectashield). The distribution of the fluorescence was analyzed on a Zeiss confocal laser fluorescence microscope equipped with a mercury lamp, oil immersion objectives and a CCD interfaced to a PC. Propidium iodide distribution was interrogated using 340-380 nm excitation and 430 nm emission, while fluorescein distribution was interrogated using 450-490 nm excitation and 520 nm emission.
To localize the subcellular distribution of the Tat-peptide conjugate, uptake experiments were performed with the fluorescein derivatized conjugate using human KB-3-1 and KB-8-5 epidermoid carcinoma cells.

[4] = test system: human Jurkat leukemia cells; assay: Washout of Tc-99m-Tat-peptide complexes from preloaded Jurkat cells; assay type: cell-based; conditions: residual activity remaining within the cell 30 minutes after a wash in isotope-free buffer
Method: as §1
Kinetic experiments of [^99mTc]D-Tat-peptide complexes were performed in Jurkat leukemia cells suspended in MEBSS with minor modification of the methods described in Example 6. Transport experiments were performed in siliconized microfuge tubes and initiated by addition of 732.5 μl of cells at 2-3×10^6 cells/ml to 10 μl of MEBSS containing [^99mTc]D-Tat-peptide complex and 7.5 μl of vehicle alone or of any added drug in vehicle at 100 fold the desired concentration. Unless stated otherwise, [^99mTc]D-Tat-peptide complex was added to MEBSS accompanied by a molar excess of unlabeled D-Tat-peptide as obtained directly from the labeling procedure. The final total peptide concentration was 7 nM to 8 μM (1-2 μCi/ml). The tube were incubated at 37° C. and the reaction terminated as previously described. For peptide washout experiments, cells were first incubated to plateau uptake (20 minutes) in MEBSS loading buffer at 37° C., collected by rapid centrifugation and the pellet resuspended in 50 ml of isotope-free MEBSS at 4° C. to clear extracellular tracer. Following another rapid spin, the cell pellet was resuspended in isotope-free MEBSS at 37° C. for various times and the reaction terminated as described previously. Protein assays and determination of gamma activity were as described in Example 6. Absolute concentration of total [Tc]Tat-peptide complex in solution was determined from the specific activity of Tc, based on equations of Mo/Tc generator equilibrium (Lamson et al., J. Nucl. Med., 16:639-641, 1975). Transport data are reported as pmol of peptidei (mg protein)^−1 (μM0)^−1, wherein peptidei represents total peptide conjugate within the cells and (nM0)^−1 represents concentration of total peptide conjugate in the extracellular buffer.

[5] = molecular target: T1, recombinant human active caspase-3 (Homo sapiens, UniProt P42574); assay: Cleavage of the caspase-3 cleavable linker in vitro; assay type: biochemical; conditions: 6 hrs incubation with active caspase-3, TLC
T1 construct: recombinant human active caspase-3
T1 sequence (P42574 29-175 limits assumed): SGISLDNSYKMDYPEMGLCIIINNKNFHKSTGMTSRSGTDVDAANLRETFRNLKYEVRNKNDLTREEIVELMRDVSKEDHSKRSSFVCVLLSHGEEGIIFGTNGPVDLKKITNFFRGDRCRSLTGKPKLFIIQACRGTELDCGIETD
T1 sequence (P42574 176-277 limits assumed): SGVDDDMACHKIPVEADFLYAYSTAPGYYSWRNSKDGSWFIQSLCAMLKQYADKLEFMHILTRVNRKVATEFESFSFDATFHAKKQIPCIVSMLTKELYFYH
Method: In small reaction vials, Tat peptide chelate as the fluorescein tagged conjugate of Example 8 was incubated with and without recombinant human active caspase-3 in commercially available reaction buffer (caspase buffer, Invitrogen). In vial 1 was peptide conjugate in buffer without caspase-3; in vial 2 was peptide conjugate with active caspase-3; and in vial 3 was stock peptide conjugate. After 6 hrs of incubation to assure completion of the reaction, the reaction mixtures were spotted at the origin of silica gel TLC plates, developed in 15% TFA, and analyzed under an UV lamp. […] This represents direct evidence for successful synthesis of a caspase-3-cleavable Tat peptide imaging conjugate.

[6] = molecular target: T2, caspase-3 (Homo sapiens, UniProt P42574); assay: Cleavage of the caspase-3 cleavable linker in situ in C6-ceramide-treated Jurkat cells; assay type: cell-based; conditions: 5 μM C6-ceramide, 1 μM peptide, RP-HPLC at 440 nm of lysates
T2 construct: Human Jurkat leukemia cells express pro-caspase-3; endogenous in cells; host or cells: Jurkat (human T-cell leukemia)
T2 sequence (P42574 29-175 limits assumed): T1 sequence (P42574 29-175 limits assumed)
T2 sequence (P42574 176-277 limits assumed): T1 sequence (P42574 176-277 limits assumed)
Method: Human Jurkat leukemia cells express pro-caspase-3. Apoptosis can be induced by pre-incubation of Jurkat cells for 5 hr in medium containing C6-ceramide, a permeant phospholipid known to activate the cell death program (Herr, et al., EMBO J 16:6200-6208, 1997; Jayadev S, et al., J. Biol Chem 270:2047-2052, 1995). After pre-incubation of Jurkat cells in MEBSS buffer at […] in the absence (untreated) or presence of 5 μM C6-ceramide, 1 μM of the caspase-3 cleavable fluorescein tagged Tat peptide of Example 8 was added to the MEBSS buffer for 30 minutes. Untreated and apoptotic cells were then spun through oil (see Example 6) to clear extracellular spaces of Tat peptide, and the intact cells in the pellet were allowed to incubate for 5 minutes at 37° C. The oil was quickly suctioned off, the reaction terminated with cell lysis buffer (1% SDS, 10 mM sodium borate), and the cell extract centrifuged (500×g for 10 min) to pellet debris and precipitates. The supernatant was removed, lyophilized overnight, and resuspended in 500 μl of water. […] In C6-ceramide-treated cells, however, no such species was observable (FIG. 7).
The above experiment was repeated using the Tc-99m-Tat peptide of Example 8. […] Tc99-m and protein content were determined using published methods (Bosch et al., Leukemia 11:1131-37, 1997).

(d)-Ac-RKKRR-Orn-RRR-β-A-(l)-SNRELVVDFLSDKLSQKGDS-COOH (Ac-[dR][dK][dK][dR][dR][dOrn][dR][dR][dR][βAla]SNRELVVDFLSDKLSQKGDS-OH; SMILES CC(=O)N[C@H](CCCNC(=N)N)C(=O)N[C@H](CCCCN)C(=O)N[C@H](CCCCN)C(=O)N[C@H](CCCNC(=N)N)C(=O)N[C@H](CCCNC(=N)N)C(=O)N[C@H](CCCN)C(=O)N[C@H](CCCNC(=N)N)C(=O)N[C@H](CCCNC(=N)N)C(=O)N[C@H](CCCNC(=N)N)C(=O)NCCC(=O)N[C@@H](CO)C(=O)N[C@@H](CC(N)=O)C(=O)N[C@@H](CCCNC(=N)N)C(=O)N[C@@H](CCC(=O)O)C(=O)N[C@@H](CC(C)C)C(=O)N[C@H](C(=O)N[C@H](C(=O)N[C@@H](CC(=O)O)C(=O)N[C@@H](Cc1ccccc1)C(=O)N[C@@H](CC(C)C)C(=O)N[C@@H](CO)C(=O)N[C@@H](CC(=O)O)C(=O)N[C@@H](CCCCN)C(=O)N[C@@H](CC(C)C)C(=O)N[C@@H](CO)C(=O)N[C@@H](CCC(N)=O)C(=O)N[C@@H](CCCCN)C(=O)NCC(=O)N[C@@H](CC(=O)O)C(=O)N[C@@H](CO)C(=O)O)C(C)C)C(C)C) [TAT-BH4(D)2, reference compound]
bacterial-induced apoptosis ([1]; 1 μM, human lymphocytes, live E. coli ~5 hours): did not prevent apoptosis

Bcl-xL: free unconjugated Bcl-xL, anti-apoptotic Bcl-2 family protein
CD3 T cell apoptosis by staining for active caspase 3 ([1]; human lymphocytes treated with live E. coli for ~5 hours): a similar decrease was not seen

acetyl-GRKKRRORRR-AHA-εKGC-amide-fluorescein-maleimide trifluoroacetate [Example 3]
20 min Uptake ([2]; [99mTc] complexes, 37° C., 20 min): 42.74 pmol (mg protein)^−1 (μM0)^−1
U/W Ratio ([2]; uptake/washout ratio): 1.8
subcellular distribution [3]: rapid cytoplasmic and nuclear accumulation
30 min Washout [4]: 24.32 pmol (mg protein)^−1 (μM0)^−1

fluorescein tagged conjugate of Example 8: caspase-3 cleavable Tat peptide conjugate labeled at the C-terminal thiol of the peptide chelator with fluorescein maleimide (Ac-GRKKRRQRRRGDEVDG[εLys]GC(fluorescein maleimide)-NH2; not fully specified; printed as acetyl-GRKKRRQRRR-GDEVDG-εKGC-amide; also: conjugate)
cleavage by caspase-3 [5]: cleavage of the Tat peptide conjugate at the D-G cleavage site
cleavage in living cells upon activation of caspase-3 ([6]; listed as caspase-3 cleavable fluorescein tagged Tat peptide of Example 8): rapid cleavage
cleavage in living cells upon activation of caspase-3 ([6]; listed as fluorescein tagged Tat peptide): absence of the intact Tat peptide
